Patent US20150252329A1, “METHODS AND APPARATUS FOR CULTURING CILIATED CELLS” (THE UNIVERSITY OF NORTH CAROLINA AT CHAPEL HILL, priority 2012, published 2015)

System: human airway epithelial cells
Assay: CBF and MCT speed of HAE cells cultured in the MCTD after stimulation by ATPγS
Assay type: cell-based
Conditions: HAE cell cultures with circular MCT in the MCTD; 1 mM ATPγS in buffer added to apical surface; average of four experiments/donors; p<0.05 vs carrier and baseline
Text: An MCT culturing device (MCTD) and the MCT system (MCTS) generally configured as shown for the MCTD 100 and MCTS 10 were constructed. The MCTD was constructed on a 30 mm Millicell™ cell culture insert (Millipore, Ireland). The base of an approximately 15 mm diameter central cylinder of cell culture compatible material (nylon, polystyrene) was attached to the center interior of the cell culture insert with an inert, silicone-based sealer. The approximately 4.0 mm outer ring or track defined in the bottom of the cell culture insert between the central cylinder and the cell culture insert was then coated with human Type IV collagen at ˜90 μg/cm^2, air-dried, and UV-irradiated. […] Cultures were examined at the time of media change and the extent of ciliation and the development of continuous, circular transport was recorded. […] High speed videos were recorded from four equally spaced positions around the MCTD. Ciliary beat frequency (CBF) was determined by whole field analysis using the SAVA™ software program (Sisson, Stoner et al. 2003), and the speed and direction of particle transport were determined by tracking particles of debris in the mucus. Alternatively, a small volume of fluid (0.5 μl) containing fluorescent beads was added to the mucus layer, and after equilibration (5-10 minutes), the motion of the fluorescent beads was recorded and analyzed using fluorescent microscopy. […]

For `Nc1ncnc2c1ncn2[C@@H]1O[C@H](COP(=O)(O)OP(=O)(O)OP(O)(O)=S)[C@@H](O)[C@H]1O` [ATPγS], the “MCT speed (mucociliary transport)” value was “significantly increased” and the “ciliary beat frequency (CBF)” value was “significantly increased”.
